Results: article PMC4931907 (eLife, 2016)
pIC50: −log10 of the molar value. Read-outs that look alike come from different tables or passages of the source.

How the values were obtained:
acetyl p53K382 = assay: Acetylation of overexpressed p53 in HEK293T cells, Western blot; type: cell-based; details: HEK293T transfected with p300 and p53, 24 hr
Description: Figure 2.

[1] = system: AE9a-driven AML cell line; assay: Growth and apoptosis of AE9a cells (trypan blue, annexin V/7AAD); type: cell-based, mouse; details: for Apoptosis, annexin V/7AAD double staining: 24 hr
Description: Previously, we reported that the leukemogenicity of the AML1-ETO fusion protein, generated by a t(8;21) translocation in acute myelogenous leukemia, is regulated by p300-mediated acetylation of lysine 43 of the fusion protein ([Wang et al., 2011]).
Figure 4. […] (B) Kasumi-1 and AE9a cells treated or not with salicylate were counted by trypan-blue exclusion under light microscopy. […] The percentage of sub-G1 cells is shown. […] Cells were counted by trypan-blue exclusion under light microscopy. […] DOI: http://dx.doi.org/10.7554/eLife.11156.011
HEK293T cells (ATCC) were maintained in DMEM supplemented with 10% FCS. The viability of Kasumi-1 cells and AE9a mouse leukemia cells was assessed in triplicate by trypan blue exclusion. The Kasumi cell line was isolated and characterized by one of the coauthors (S. Nimer) ([Becker et al., 2008]). All cell lines were tested annually for mycoplasma contamination. Only negative mycoplasma cultures were used during the conduct of these experiments.
Apoptosis was analyzed with an Annexin V-APC/7AAD Apoptosis kit (Becton-Dickinson) according to manufacturer’s instructions. To assess the distribution of nuclear DNA content in the cell-cycle analysis, cells were collected, washed in PBS, fixed overnight in 75% ethanol at –20°C, treated with 1% RNase A for at least 15 min at 37°C, and stained with […] propidium iodide. To monitor CD34 expression, the cells were stained with an allophycocyanin-conjugated anti-CD34 antibody (Becton Dickinson). To monitor CD11b expression, the cells were stained with a phycoerythrin-conjugated anti-CD11b antibody (Beckman-Coulter). To monitor C-kit and Mac-1 expression, the cells were stained with allophycocyanin-conjugated anti-C-kit and phycoerythrin-conjugated anti-Mac-1 antibodies (Becton-Dickinson). Cells were sorted with a Becton-Dickinson FACSCalibur, and the data were analyzed with FlowJo software.

[2] = cited from earlier work
[3] = system: histone acetylation (H2BK12/K15) in HEK293T cells; assay: Site-specific histone acetylation in HEK293T cells by Western blot; type: cell-based; details: for Deacetylation of specific histone residues: Western blot; for pIC50: Homo sapiens, HEK-293T
Protocol: To determine whether salicylate induces histone deacetylation directly in cells, we treated HEK293T cells with various concentrations of salicylate.
Figure 2. Salicylate inhibits specific lysine acetylation of histone and nonhistone proteins independently of AMPK activation. […] HEK293T cells were treated with the indicated concentrations of sodium salicylate for 24 hr. Site-specific histone acetylation was detected by Western blot with specific antisera. Bands were quantified with Image J software. Acetylation was normalized to that of untreated cells and plotted. Representative results are shown in Supplementary Figure 1. Experiments are repeated and error bars indicate SEM. […] HEK293T cells were transfected with increasing amounts of expression vectors for p300 or F1504A or PCAF, treated with sodium salicylate for 24 hr, and analyzed by Western blotting analysis with an antiserum specific for acetyl histone H2BK12/K15. Bands were quantified with Image J software. Acetylation was normalized to that of untreated control. Average levels of relative acetylation are plotted and error bars indicate SEM. Representative results are shown in Supplementary Figure 2—figure supplement 2. (E) IC50 values generated from all curves in panel (B) and (D) were plotted against the amount of plasmid transfected (p300 or PCAF). (F), (G) HEK293 T cells were transfected with expression vectors for p300 and NF-κB p65 (F) or p53 (G), treated with salicylate for 24 hr, and analyzed by Western blot with specific antibodies against acetyl NF-κBK310 (F) or acetyl p53K382 and acetyl H2BK12/15 (G). Compound C (10 μM), a specific AMPK inhibitor, was added to salicylate-treated cells for 24 hr before Western blot (G). KR, p65 K310R mutant DOI: http://dx.doi.org/10.7554/eLife.11156.005 Figure 2—figure supplement 1. Salicylate induces histone deacetylation in HEK293T cells HEK293T cells were treated with sodium salicylate as indicated for 24 hr, immediately lysed in Laemmli buffer, and then subjected to western blot analysis with the indicated antibodies. Histones H2A, H2B, H3 and H4 were used as input loading controls. Experiments are repeated five times and representative data are shown. DOI: http://dx.doi.org/10.7554/eLife.11156.006 [drawing 2] Figure 2—figure supplement 2. Salicylate-induced deacetylation of histone H2B can be rescued by overexpression of p300, but not PCAF, in a dose-dependent manner. (A) Overexpression of p300 but not PCAF specifically leads to hyperacetylation of histone H2B. […] H2B acetylation was measured by western blot and the specified antibodies. (B) Overexpression of p300 but not PCAF rescued salicylate-induced H2B deacetylation in a dose-dependent manner. […] H2B acetylation was measured by Western Blot and the specified antibodies. […]

| SMILES | Acetylation of p53 K382 (acetyl p53K382) | Apoptosis, annexin V/7AAD double staining [1] | Plasma concentrations of diflunisal ([2]; after daily oral administration, ref Nuernberg et al., 1991, Mano et al., 2006) | Deacetylation of specific histone residues ([3]; HEK293T cells, 24 hr) | pIC50 ([3]; 24 h, read-out: IC50 for H2BK12/K15 inhibition in cells) | Concentration inhibiting cell proliferation ([1]; trypan-blue exclusion counts) | Plasma concentrations of salicylate ([2]; humans after oral administration, ref Goldfine et al., 2010, 2013) | Salicylate plasma concentrations in patients ([2]; patients taking salicylic acid 3–4 g/day, no reference given) | pIC50 ([3]; HEK293T cells, 24 hr, read-out: IC50 for inhibition of H2B acetylation) |
| --- | --- | --- | --- | --- | --- | --- | --- | --- | --- |
| O=C(O)c1cc(-c2ccc(F)cc2F)ccc1O [diflunisal] | suppressed acetylation | increased apoptosis in a dose-dependent manner | 150 to 350 µM | induced deacetylation of specific histone residues, H2AK5, K9, H2BK12/K15, H3K56 | 3.80 | – | – | – | – |
| O=C(O)c1ccccc1O [salicylate, salicylic acid] | decreased acetylation | increased apoptosis | – | deacetylation of H2AK5/K9, H2BK12/K15, and H3K56 in a dose-dependent manner | – | ≥ 1 mM | 1000 to 3000 µM | 1 to 3 mM | 2.32 |
